Assay: Inhibition of EGFR L858R mutant (unknown origin) using poly (Glu, Tyr) as substrate after 40 mins by kinase-glo plus luminescence assay

Row | Structure (SMILES) | IC50 [nM]
1 | CN(C)CCOc1ccc(Nc2ncc3nc(Sc4cccc(F)c4)n(C4CCOCC4)c3n2)cc1 | 5.8
2 | CN(C)CCOc1ccc(Nc2ncc3nc([S+]([O-])c4ccccc4)n(C4CCOCC4)c3n2)cc1 (centres undefined) | 2.6
3 | CN1CCN(c2ccc(Nc3ncc4nc([S+]([O-])c5ccccc5)n(C5CCCC5)c4n3)cc2)CC1 (centres undefined) | 4.2
4 | CN1CCN(c2ccc(Nc3ncc4nc(Sc5ccccc5)n(C5CCCC5)c4n3)cc2)CC1 | 4.2

Now those with a lower IC50, led by results:

Row | IC50 [nM] | Structure (SMILES)
5 | 1.2 | CN(C)CCOc1ccc(Nc2ncc3nc(Sc4ccc(F)cc4)n(C4CCOCC4)c3n2)cc1
6 | 1.9 | CN(C)C1CCN(c2ccc(Nc3ncc4nc(Sc5ccccc5)n(C5CCOCC5)c4n3)cc2)CC1
7 | 2.4 | CN1CCN(c2ccc(Nc3ncc4nc(Sc5ccccc5)n([C@H]5CC[C@H](O)CC5)c4n3)cc2)CC1
8 | 1.7 | CN(C)CCOc1ccc(Nc2ncc3nc(Sc4ccccc4)n(C4CCOCC4)c3n2)cc1
9 | 2 | CN1CCN(c2ccc(Nc3ncc4nc(Sc5ccccc5)n(C5CCOCC5)c4n3)cc2)CC1

Reference: BindingDB's records for doi:10.1016/j.bmc.2018.03.025 (Xi'An Jiaotong University, 2018)
